Measurements reported in patent US7214534B2, “Isolated nucleic acid molecules encoding mutant μ opioid receptors” (Regents of the University of Minnesota, priority 2002, dated 2007).
“And” between values parts separate entries of the source, which are not always exact repeats. Equal values may be shown once.

Columns and labels:
wild-type mice [1] = test: Tail withdrawal antinociception test, wild-type mice; assay type: in vivo, mouse; details: for ED50: Mus musculus, 0.5 h, read-out: ED50 tail withdrawal
Procedure: (§1) For tail withdrawal testing, mice were loosely wrapped in an adsorbent towel, and their tails were immersed about 2 cm into water heated to 53° C. or placed under radiant heat. The latency to tail withdrawal was recorded. A cut-off time of 24 seconds for warm water or 12 seconds for radiant heat was used to minimize tail damage. […] Percent maximum possible effects (% MPE) were calculated by the following formula: (measured latency−baseline latency)*100/(cut-off time−baseline latency). Each dose for each genotype involved 8–12 mice. ED50 values were derived from regression analysis on the linear portion of each dose-response curve or calculated by non-linear regression. A two way analysis of variance (ANOVA) (genotype and dose) was used to determine genetic differences among genotypes in the same dose groups.

Cre/S196A mice [2] = test: Tail withdrawal antinociception test, Cre/S196A mutant mice; details: for ED50: Mus musculus, radiant heat
Procedure: as §1

wild-type mice [3] = test: Acetic acid-induced writhing inhibition test, wild-type mice; assay type: in vivo, mouse; details: for ED50: Mus musculus, ip, 0.6% acetic acid i.p.
Procedure: (§2) Writhing tests were conducted as follows. […] Writhing was counted for 20 minutes following the i.p. injection. At the same time, mice from each genotype were injected with saline s.c. plus acetic acid i.p., and the mean count of writhing of the saline group was calculated. The % MPE for writhing test was calculated by the following formula: (mean count of saline group−count of drug group)*100/(mean count of saline group).

Cre/S196A mice [4] = test: Acetic acid-induced writhing inhibition test, Cre/S196A mutant mice; assay type: in vivo, mouse; details: for ED50: Mus musculus, ip, 0.6% acetic acid i.p.
Procedure: as §2

[5] = system: μ opioid receptor knockout mice; test: Nalorphine antinociception in μ opioid receptor knockout mice; assay type: in vivo, mouse; details: μ opioid receptor knockout mice (data not shown)
[6] = target: T1, μ opioid receptor (wild-type) (Mus musculus, UniProt P42866); test: [3H]DAMGO saturation binding (Scatchard analysis), brain membranes of wild-type mice
T1 construct: Brain membranes were prepared from both wild-type mice; from tissue; host or cells: mouse brain membranes (wild-type littermates)
Procedure: (§3) Approximately 200–350 μg of membranes were used in each assay.

[7] = target: T2, μ opioid receptor S196A mutant (Mus musculus, UniProt P42866, S196A); test: [3H]DAMGO saturation binding (Scatchard analysis), brain membranes of homozygous Cre/S196A mice; details: listed as [^3H]DAMGO
T2 construct: brain membranes from homozygous Cre/S196A (HOMO) mutant mice; from tissue; host or cells: brain membranes of homozygous Cre/S196A knock-in mice
Procedure: as §3

[8] = read-out: ED50 tail withdrawal, homozygous Cre/S196A mice, 30 minutes after morphine and nalorphine, 12 minutes after naloxone injection

T2 sequence (P42866 whole entry S196A): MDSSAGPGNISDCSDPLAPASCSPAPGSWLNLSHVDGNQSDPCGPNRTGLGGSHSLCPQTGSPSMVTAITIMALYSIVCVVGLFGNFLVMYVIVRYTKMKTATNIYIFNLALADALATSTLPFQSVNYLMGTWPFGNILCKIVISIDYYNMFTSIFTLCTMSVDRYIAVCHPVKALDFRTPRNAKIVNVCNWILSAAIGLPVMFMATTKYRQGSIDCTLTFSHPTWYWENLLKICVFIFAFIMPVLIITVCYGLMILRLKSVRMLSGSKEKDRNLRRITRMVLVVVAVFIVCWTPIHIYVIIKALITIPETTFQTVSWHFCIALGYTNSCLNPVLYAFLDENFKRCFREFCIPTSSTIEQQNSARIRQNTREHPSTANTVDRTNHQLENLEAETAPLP
T1 sequence (P42866 whole entry): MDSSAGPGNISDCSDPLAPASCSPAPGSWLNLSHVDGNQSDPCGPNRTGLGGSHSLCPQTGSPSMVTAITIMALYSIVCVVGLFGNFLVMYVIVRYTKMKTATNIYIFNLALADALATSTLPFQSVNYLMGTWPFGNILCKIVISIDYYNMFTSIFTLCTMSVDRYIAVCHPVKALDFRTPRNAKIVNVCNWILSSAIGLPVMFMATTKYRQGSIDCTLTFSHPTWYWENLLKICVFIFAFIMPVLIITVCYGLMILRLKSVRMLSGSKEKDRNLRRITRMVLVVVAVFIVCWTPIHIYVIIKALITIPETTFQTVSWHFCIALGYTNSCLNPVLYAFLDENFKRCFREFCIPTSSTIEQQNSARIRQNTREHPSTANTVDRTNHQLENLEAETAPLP

C=CCN1CC[C@]23c4c5ccc(O)c4O[C@H]2[C@@H](O)C=C[C@H]3[C@H]1C5 [nalorphine]
ED50 (wild-type mice [1]): 0.61 mg/kg
maximal response, of the maximal morphine response, tail withdrawal (wild-type mice [1]; wild-type mice): 24±5%
ED50 (Cre/S196A mice [2]; [8]): 0.89 mg/kg
antinociceptive response, of the morphine maximal response, tail withdrawal (Cre/S196A mice [2]; homozygous Cre/S196A mice, maximal dose tested, 10 mg/kg): 68±5%
maximal response, of the maximal morphine response, writhing (wild-type mice [3]): 44±3%
ED50 (wild-type mice [3]): 0.37 mg/kg
ED50 (Cre/S196A mice [4]; homozygous Cre/S196A mice): 0.27 mg/kg
maximal antinociceptive response compared with morphine, inhibition of writhing (Cre/S196A mice [4]; homozygous Cre/S196A mice, dose of 1 mg/kg): same maximal antinociceptive response as morphine
antinociceptive effect [5]: absence of nalorphine effect

C=CCN1CC[C@]23c4c5ccc(O)c4O[C@H]2C(=O)CC[C@@]3(O)[C@H]1C5 [naloxone]
antinociceptive response, tail withdrawal (wild-type mice [1]; wild-type mice, doses of 0.1 to 10 mg/kg): did not produce significant antinociceptive responses
ED50 (Cre/S196A mice [2]; [8]): 1.32 mg/kg
toxic effects (Cre/S196A mice [2]; both the mutant and the wild-type mice at higher dosages): increasing toxic effects
antinociceptive response, writhing (wild-type mice [3]; doses of 0.1 to 10 mg/kg): did not produce significant antinociceptive responses
maximal response, of that observed with morphine, writhing inhibition (Cre/S196A mice [4]; Cre/S196A mice): 45±3
ED50 (Cre/S196A mice [4]; homozygous Cre/S196A mice): 0.22 mg/kg

C[C@@H](NC(=O)[C@@H](N)Cc1ccc(O)cc1)C(=O)NCC(=O)N(C)[C@@H](Cc1ccccc1)C(=O)NCCO [DAMGO, [D-Ala^1.N-McPhe^4.Gly^5-ol]enkephalin]
Bmax [6]: 113±4.3 fmole/mg-protein
Bmax [7]: 17.5±2.3 fmol/mg protein and 17.5 fmol/mg protein

CN1CC[C@]23c4c5ccc(O)c4O[C@H]2[C@@H](O)C=C[C@H]3[C@H]1C5 [morphine]
ED50 (wild-type mice [1]): 4.4 mg/kg
ED50 (Cre/S196A mice [2]; read-out: ED50 tail withdrawal, heterozygous Cre/S196A mice): 3.47 mg/kg
ED50 (Cre/S196A mice [2]; [8]): 3.2 mg/kg
ED50 (wild-type mice [3]): 0.48 mg/kg
ED50 (Cre/S196A mice [4]; heterozygous Cre/S196A mice): 0.68 mg/kg
ED50 (Cre/S196A mice [4]; homozygous Cre/S196A mice): 0.5 mg/kg
